In patent publication US4902800A, “1-Substituted-4-pyrrolidinopiperidines as inhibitors of interleukin 1” (American Home Products Corporation, priority 1988, dated 1990) one finds inhibition data, which are given here for two compounds.

The test system of the assay is IL 1-induced release of neutral protease from rabbit articular chondrocytes. In words: Inhibition of IL 1-induced release of neutral protease from rabbit articular chondrocytes (azocoll degradation). The following applies: Oryctolagus cuniculus, Chondrocyte, test compound 10 min. prior to human IL 1, 24 h after IL 1 stimulation, read-out: % Inhibition (I.S.D.). Format: cell-based, rabbit (New Zealand White). On the procedure: The ability of the compounds of the inventions to inhibit interleukin 1 is measured by the ability of the test compounds to inhibit the IL 1-induced release of neutral protease from rabbit articular chondrocytes.
Male New Zealand White rabbits are anesthetized with 50 mg/kg of ketamine (i.m.) and killed by an intracardiac injection of 3 mls. of Nembutal. The knee joints of both legs are resected and the articular surfaces are exposed. Cartilage slices are obtained using scalpel and are placed in a tissue culture dish (100 mm diameter) containing 10 mls of Hank's balanced salt solution (HBSS). The chondrocytes within the cartilage slices are then liberated by a series of enzyme digestions. The slices are incubated for 10 min. at 37° C. in 0.05% hyaluronidase (Sigma H-3884), rinsed with HBSS and incubated with 0.2% trypsin (Sigma T-2395) for 10 min. at 37° C. The slices are rinsed again and incubated for 10 mins. at 37° C. with 1.2% collagenase (Sigma C-5138). The slices are then rinsed again with HBSS and resuspended in 10 ml of Ham's F-12 medium containing 10% fetal bovine calf serum (FCS) and 0.2% collagenase and incubated overnight at 37° C. in a 5% CO2 incubator. The next day, the medium containing the digested cartilage fragments and liberated chondrocytes is transferred to a 15 ml centrifuge tube and the cells are collected by centrifugation and washed twice and resuspended in Ham's F-12 medium. The cells are then plated into 24-well tissue culture plates (2×10^5 cells/well) and incubated at 37° C. until confluent (usually 4-6 days).
The confluent chondrocytes are rinsed twice with serum-free Ham's F-12 medium and 1 ml is added to each well. Fifty μl of purified human IL 1 (100 Units/ml; Genzyme Corporation, Boston, MA) is then added to stimulate these cells to secrete neutral protease. To measure drug effects, the cells are treated with test compound 10 min. prior to addition of IL 1. The standard screening dose is 10 μM. Twenty-four hours after IL 1 stimulation, supernatant fluids are collected and assayed for neutral protease activity.
The neutral protease activity of chondrocyte supernatant fluids is determined by their ability to degrade an insoluble protease substrate, azocoll (Sigma). Supernatants are treated for 10 min. at room temperature with 350 μM p-aminophenylmercuric acetate to activate the latent enzyme. Three hundred μl of supernatant is then mixed with 500 μl of a 20 mg/ml suspension of azocoll and incubated at 37° C. for 18-24 hrs. with gentle rocking. The mixtures are centrifuged and the amount of substrate hydrolyzed is determined by measuring the absorbance of the supernatant at 520 nm.
Drug effects are calculated as the % change in enzyme activity (absorbance)by supernatants from drug-treated chondrocytes relative to enzyme activity of supernatants from vehicle-treated chondrocytes as follows: [formula]

Each structure is given as a SMILES string.

In general, inhibition refers to the drop in the measured response relative to a control, in per cent. For the compound `N#Cc1ccc(N2CCC(N3CCCC3)CC2)cc1` [Example 1, 4-[4-(1-Pyrrolidinyl)-1-piperidinyl]benzonitrile], the inhibition at 0.1 µM was 48%, the inhibition at 1 µM amounted to 57% and the inhibition at 10 µM amounted to 26%.
As for `CS(=O)(=O)c1ccc(N2CCC(N3CCCC3)CC2)cc1` [Example 2, 1-[4-(Methylsulfonyl)phenyl]-4-(1-pyrrolidinyl)piperidine], the inhibition at 0.1 µM amounted to 22%, the inhibition at 1 µM was 87% and the inhibition at 10 µM turned out to be 91%.
